Source: PMC9179341, “Design of New Potent and Selective Thiophene-Based KV1.3 Inhibitors and Their Potential for Anticancer Activity” (Cancers, 2022)
Entries after “also recorded” stand apart in the source; their conditions may differ.

Molecular target: KV1.5 (Homo sapiens, UniProt P22460)
Experiment: Selectivity, HiClamp Xenopus laevis heterologous expression system, KV1.5
Assay type: cell-based
Details: HiClamp, oocytes; NA = no significant inhibition, no IC50 determined
Procedure: (§1) Ion channels (Kv1.x, Kv2.1, Kv4.2, Kv10.1) were expressed in Xenopus laevis oocytes by linearization of the plasmids and subsequent in vitro transcription using a commercial T7 or SP6 mMESSAGE mMACHINE transcription kit (Ambion, Carlsbad, California, USA). Defolliculated Xenopus oocytes were then injected with 20–50 nL of the cRNA at a concentration of 1 ng/nL using a micro-injector (Drummond Scientific1, Broomall, PA, USA). The oocytes were incubated in a solution containing (in mM): NaCl, 96; KCl, 2; CaCl2, 1.8; MgCl2, 2 and HEPES, 5 (pH 7.5), supplemented with 50 mg/L gentamycin sulfate and 90 mg/L theophylline. After ex vivo translation, the ion channels were correctly inserted in the cell membrane of the oocytes.
(§2) Two-electrode voltage-clamp recordings were performed at room temperature (18–22 °C) using a Geneclamp 500 amplifier (Molecular Devices, San Jose, CA, USA) and pClamp data acquisition (Axon Instruments, Union City, CA, USA) and using an integrated digital TEVC amplifier controlled by HiClamp, an automated Voltage-Clamp Screening System (Multi Channel Systems MCS GmbH, Reutlingen, Germany). Whole-cell currents from oocytes were recorded 1–4 days after injection. The bath solution composition was ND96 (in mM): NaCl, 96; KCl, 2; CaCl2, 1.8; MgCl2, 2 and HEPES, 5 (pH 7.5). Voltage and current electrodes were filled with a 3 M solution of KCl in H2O. Resistances of both electrodes were kept between 0.5 and 1.5 MΩ. The elicited Kv1.x, Kv2.1, Kv4.2 and Kv10.1 currents were filtered at 0.5 kHz and sampled at 2 kHz using a four-pole low-pass Bessel filter. Leak subtraction was performed using a P/4 protocol.
(§3) For the electrophysiological analysis of the compounds, a number of protocols were applied from a holding potential of −90 mV. Currents for Kv1.x, Kv2.1, Kv4.2 and Kv10.1 were evoked by 1 s depolarizing pulses either to 0 mV or to a range of voltage steps between −80 mV and +40 mV. For the analysis of the data, only the inhibition at the 0 mV step was used. The concentration dependency of all compounds was assessed by measuring the current inhibition in the presence of increasing compound concentrations. […] From this stock solution, adequate dilutions with a maximum of 0.5% DMSO were made for testing.
(§4) All electrophysiological data (Figure S1) are presented as means ± S.E.M of n ≥ three independent experiments unless otherwise indicated. All data were analyzed using pClamp Clampfit 10.4 (Molecular Devices, Downingtown, PA, USA), OriginPro 9 (Originlab, Northampton, MA, USA), GraphPad Prism 8 software (GraphPad Software, Inc., San Diego, CA, USA) and DataMining (Multi Channel Systems MCS GmbH, Reutlingen, Germany). The Dunnett test and one-way ANOVA were performed to calculate the significance of the induced inhibition compared to the control.

Chain of KV1.5 (P22460 whole entry): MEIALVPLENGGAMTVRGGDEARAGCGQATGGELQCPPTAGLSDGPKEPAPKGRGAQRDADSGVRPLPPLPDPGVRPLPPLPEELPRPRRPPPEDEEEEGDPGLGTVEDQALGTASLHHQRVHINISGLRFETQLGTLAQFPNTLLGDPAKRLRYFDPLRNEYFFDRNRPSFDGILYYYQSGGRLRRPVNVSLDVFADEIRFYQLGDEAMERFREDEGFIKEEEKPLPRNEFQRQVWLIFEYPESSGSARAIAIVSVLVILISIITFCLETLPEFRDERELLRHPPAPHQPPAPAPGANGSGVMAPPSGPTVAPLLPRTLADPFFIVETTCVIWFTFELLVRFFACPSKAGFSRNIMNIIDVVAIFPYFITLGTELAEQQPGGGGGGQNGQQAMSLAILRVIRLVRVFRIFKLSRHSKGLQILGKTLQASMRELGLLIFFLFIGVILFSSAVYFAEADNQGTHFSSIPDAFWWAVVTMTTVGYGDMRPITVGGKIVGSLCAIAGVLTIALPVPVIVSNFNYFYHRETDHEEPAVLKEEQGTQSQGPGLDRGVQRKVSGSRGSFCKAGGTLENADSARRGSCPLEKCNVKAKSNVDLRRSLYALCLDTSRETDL

| Compound | IC50 [µM] |
| --- | --- |
| COc1ccccc1C(=O)NCC1(c2cccs2)CCOC1 (stereo not drawn) [Compound 14] | 2.07 ± 0.13 |
| COc1ccccc1C(=O)NCC1(c2cccs2)CCOCC1 [Compound 43] | 4.33 ± 0.01 |
| COc1ccc(F)cc1C(=O)NCC1(c2ccccc2)CCOCC1 [Compound 37] | 8.64 ± 0.03 |

Same assay, conditions: at a concentration of the compound's IC50 value for KV1.3

| Compound | Effect on KV1.5 channel |
| --- | --- |
| COc1ccccc1C(=O)NCC1(c2ccsc2)CCOCC1 [Compound 44] | no significant effects |
| COc1ccccc1C(=O)NCC1(c2cccs2)CCOC1 (stereo not drawn) [Compound 14] | significant effects |
| COc1ccccc1C(=O)NCC1(c2cccs2)CCOCC1 [Compound 43] | significant effects |
| COc1ccc(F)cc1C(=O)NCC1(c2ccccc2)CCOCC1 [Compound 37] | significantly inhibited |

Molecular target: T1, KV1.3 (Homo sapiens, UniProt P22001)
T1 sequence (P22001 whole entry): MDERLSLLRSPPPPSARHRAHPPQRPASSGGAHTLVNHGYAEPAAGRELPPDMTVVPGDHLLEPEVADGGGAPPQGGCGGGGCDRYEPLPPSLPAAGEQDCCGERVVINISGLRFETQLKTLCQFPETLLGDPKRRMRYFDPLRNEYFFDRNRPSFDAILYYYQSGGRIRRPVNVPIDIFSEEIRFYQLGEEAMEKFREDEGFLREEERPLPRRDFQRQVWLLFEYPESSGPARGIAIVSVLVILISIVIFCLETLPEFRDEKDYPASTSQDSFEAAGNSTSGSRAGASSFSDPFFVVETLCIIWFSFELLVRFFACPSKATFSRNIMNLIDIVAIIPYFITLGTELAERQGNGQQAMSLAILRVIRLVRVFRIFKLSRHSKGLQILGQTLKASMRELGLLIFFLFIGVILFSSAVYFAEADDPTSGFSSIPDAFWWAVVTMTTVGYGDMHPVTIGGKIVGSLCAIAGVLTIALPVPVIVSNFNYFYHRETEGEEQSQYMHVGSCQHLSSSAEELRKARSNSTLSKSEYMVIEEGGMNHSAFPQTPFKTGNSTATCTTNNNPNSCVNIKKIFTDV
Experiment: KV1.3 inhibition, HiClamp on Xenopus laevis oocytes
Assay type: cell-based
Details: Xenopus laevis oocytes (marked * in Table 2)
Procedure: (§5) Stage V–VI oocytes were isolated by partial ovariectomy from Xenopus laevis frogs (African clawed frogs). […] After anaesthetizing the frogs by a 15-min submersion in 0.1% tricaine methanesulfonate (amino benzoic acid ethyl ester; Merck, Kenilworth, NJ, USA), pH 7.0, the oocytes were collected. The isolated oocytes were then washed with a 1.5 mg/mL collagenase solution for 2 h to remove the follicle layer.
as §1, with “theophylline.” for “theophylline. After ex vivo translation, the ion channels were correctly inserted in the cell membrane of the oocytes.”
as §2, with “Resistances of both electrodes were kept between 0.5 and 1.5 MΩ.” left out
as §3
(§6) All electrophysiological data (Figure S1) are presented as means ± S.E.M of n ≥ three independent experiments unless otherwise indicated. […] The Dunnett test and one-way ANOVA were performed to calculate the significance of the induced inhibition compared to the control.

| Compound | IC50 [µM] |
| --- | --- |
| COc1ccccc1C(=O)NCC1(c2ccsc2)CCOCC1 [Compound 44] | 1.99 ± 0.61 |
| COc1ccccc1C(=O)NCC1(c2cccs2)CCOC1 (stereo not drawn) [Compound 14] | 1.03 ± 0.03 |
| COc1ccccc1C(=O)NCC1(c2cccs2)CCOCC1 [Compound 43] | 1.2 ± 0.02 |
| COc1ccc(F)cc1C(=O)NCC1(c2ccccc2)CCOCC1 [Compound 37] | 1.97 |

Tested on: Panc-1 cells
Experiment: Cell proliferation (culture confluency, IncuCyte) in 2D culture, Panc-1
Assay type: cell-based
Details: 100 µM, confluence by live cell imaging
Procedure: Cell lines Panc-1 (ACC 783) and Colo-357 (CVCL_0221) were obtained through the validated collection of the pHioniC consortium (MSC-ITN 813834). Both cell lines were grown in RPMI1640, supplemented with 1 mM sodium pyruvate and 1% Glutamax (all Gibco Thermo-Fisher, Waltham, MA USA) 10%FBS (BioChrom, Berlin, Germany), at 5% CO2 and 37 °C in a humidified atmosphere.
For cell proliferation assays, cells were seeded at a density of 10,000 cells/well in 96-well flat bottom culture plates (Corning, Kaiseslautern, Germany) and proliferation was measured through culture confluency using an IncuCyte device (Sartorius, Göttingen, Germany). Every hour, two phase contrast images per well were acquired, and a confluency mask was generated by training the analysis algorithm using representative images. Every image was then analyzed using the obtained parameters to determine culture confluency. Treatments were then added when cells reached a confluency of ~30% (Panc-1) or ~55% (Colo-357), and proliferation was determined for the following 60 h. Proliferation is reported as confluency increase with respect to the start of the treatment.

| Compound | Growth (proliferation) inhibition of Panc-1 cells |
| --- | --- |
| COc1ccccc1C(=O)NCC1(c2ccsc2)CCOCC1 [Compound 44] | significantly inhibited; also recorded: moderate growth inhibition |
| COc1ccccc1C(=O)NCC1(c2cccs2)CCOC1 (stereo not drawn) [Compound 14] | significantly inhibited; also recorded: strong inhibition |
| COc1ccccc1C(=O)NCC1(c2cccs2)CCOCC1 [Compound 43] | significantly inhibited; also recorded: strong inhibition |
| COc1ccc(F)cc1C(=O)NCC1(c2ccccc2)CCOCC1 [Compound 37] | significantly inhibited; also recorded: strong inhibition |

Molecular target: KV1.1 (Rattus norvegicus, UniProt P10499)
Sequence (P10499 whole entry): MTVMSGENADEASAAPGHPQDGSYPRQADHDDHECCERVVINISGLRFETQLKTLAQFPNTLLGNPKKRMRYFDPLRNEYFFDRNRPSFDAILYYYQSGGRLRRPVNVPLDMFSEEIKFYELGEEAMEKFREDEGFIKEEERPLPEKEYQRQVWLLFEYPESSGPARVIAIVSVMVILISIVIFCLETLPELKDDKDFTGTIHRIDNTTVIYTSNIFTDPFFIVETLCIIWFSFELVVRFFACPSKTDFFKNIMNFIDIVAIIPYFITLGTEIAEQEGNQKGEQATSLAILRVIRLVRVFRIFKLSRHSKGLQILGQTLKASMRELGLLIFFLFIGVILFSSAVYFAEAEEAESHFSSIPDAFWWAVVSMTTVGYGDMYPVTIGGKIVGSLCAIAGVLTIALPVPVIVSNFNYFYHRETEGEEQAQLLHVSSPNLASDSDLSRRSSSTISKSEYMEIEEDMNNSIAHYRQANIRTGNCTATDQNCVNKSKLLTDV
Experiment: Selectivity, HiClamp Xenopus laevis heterologous expression system, KV1.1
Assay type: cell-based
Details: at a concentration of the compound's IC50 value for KV1.3
Procedure: as §1, §2, §3, §4

| Compound | Effect on KV1.1 channel |
| --- | --- |
| COc1ccccc1C(=O)NCC1(c2ccsc2)CCOCC1 [Compound 44] | no significant effects |
| COc1ccccc1C(=O)NCC1(c2cccs2)CCOC1 (stereo not drawn) [Compound 14] | significant effects |
| COc1ccccc1C(=O)NCC1(c2cccs2)CCOCC1 [Compound 43] | significant effects |
| COc1ccc(F)cc1C(=O)NCC1(c2ccccc2)CCOCC1 [Compound 37] | significantly inhibited |

Molecular target: T1, KV1.3
Experiment: KV1.3 inhibition, manual voltage-clamp on Xenopus laevis oocytes
Assay type: cell-based
Details: 10 μM; manual voltage-clamp on Xenopus laevis oocytes
Procedure: as §5
as §1, with “theophylline.” for “theophylline. After ex vivo translation, the ion channels were correctly inserted in the cell membrane of the oocytes.”
as §2, with “Resistances of both electrodes were kept between 0.5 and 1.5 MΩ.” left out
as §3, §6

| Compound | inhibition at 10 µM [%] |
| --- | --- |
| COc1ccccc1C(=O)NCC1(c2ccsc2)CCOCC1 [Compound 44] | 96 ± 1 |
| COc1ccccc1C(=O)NCC1(c2cccs2)CCOC1 (stereo not drawn) [Compound 14] | 92 ± 4 |
| COc1ccccc1C(=O)NCC1(c2cccs2)CCOCC1 [Compound 43] | 92 ± 1 |
| COc1ccc(F)cc1C(=O)NCC1(c2ccccc2)CCOCC1 [Compound 37] | 94 ± 1 |

Same assay, conditions: KV1.3; manual voltage-clamp, Xenopus laevis oocytes

| Compound | IC50 [µM] |
| --- | --- |
| COc1ccccc1C(=O)NCC1(c2ccsc2)CCOCC1 [Compound 44] | 0.47 |
| COc1ccccc1C(=O)NCC1(c2cccs2)CCOC1 (stereo not drawn) [Compound 14] | 0.57 |
| COc1ccccc1C(=O)NCC1(c2cccs2)CCOCC1 [Compound 43] | 0.59 |
| COc1ccc(F)cc1C(=O)NCC1(c2ccccc2)CCOCC1 [Compound 37] | 3.96 ± 0.47 |
